Results as given in patent publication US20090311349A1, “METHOD OF QUANTIFICATION OF MULTIPLE BIOACTIVES FROM BOTANICAL COMPOSITIONS” (priority 2008, published 2009).
Marks after values point to notes of the source that are not given here. Values belong to the compound of their own block, whether it stands above or below them.

Legend:
MCF-7 cells = test: [3H] thymidine incorporation in adenovirus-infected MCF-7 cells; format: cell-based, human; settings: presence of E2; 10 days
Method: To investigate the role of ERα in breast cancer, the effects of E2 on cell proliferation in MCF-7 cells that express only ERα were studied. […] (An, supra, 2001). […] To investigate the role of ERβ on the proliferation of breast cancer cells, an adenovirus (Ad) was used to deliver ERβ into a high percentage of cells. MCF-7 cells were infected for 24 h with Ad-ERβ or Ad-LacZ to control for potential non-specific effects of the virus. The infected cells were grown for 10 days in the absence or presence of E2, after which DNA synthesis was measured by [3H] thymidine incorporation in vitro. […] E2 augmented the inhibition of cell proliferation to 70% in the Ad-ERβ-infected cells. Similar results were observed using 100 multiplicity of infection (MOI) of Ad-ERβ. The observation that the inhibition of cell proliferation by ERβ was predominantly ligand-independent may result from residual E2 in stripped serum or retained in cells infected with ERβ, or unliganded properties of […].

U2OS-ERβ cells [1] = test: Affymetrix U95Av2 microarray, U2OS-ERβ cells; format: cell-based, human
Method: (§1) To identify genes regulated by ERα and/or ERβ, the U2OS-ERα and U2OS-ERβ cell lines were treated with doxycycline for 18 h in the absence or presence of 10 nM E2. Total RNA was used to prepare cRNA for hybridization with the human U95Av2 Affymetrix microarrays, which contain 12,600 known genes. Six sets of comparative expression data of untreated vs. each treated group were used to determine the genes regulated in ERα or ERβ cells.
(§2) Microarray data obtained from human Affymetrix U95Av2 gene chips from untreated vs. ligand-treated samples were analyzed using the Affymetrix Microarray Suite Version 5.0. Candidate genes displaying a statistically significant (p<0.05) increase or decrease signal changes relative to controls in at least three experiments were further selected by a ±0.8 signal log ratio mean cut-off. […] Fold-changes in the U2OS-ERα and U2OS-ERβ samples (in parentheses) were calculated relative to the untreated samples.

[2] = tested on: U2OS-ERα and U2OS-ERβ cell lines; test: Affymetrix U95Av2 microarray, both U2OS-ERα and U2OS-ERβ cell lines; format: cell-based, human; settings: for genes Activated, α + β / genes Repressed, α + β: 10 nM E2 or 1 μM tamoxifen
Method: as §1, §2

U2OS-ERα cells [3] = test: Affymetrix U95Av2 microarray, U2OS-ERα cells; format: cell-based, human
Method: as §1, §2

U2OS-ERα cells [4] = settings: 1 μM raloxifene, 18 h, relative to untreated
human ERβ = target: T1, human ERβ (Homo sapiens, UniProt Q92731); test: ERE-tk-Luc reporter activation in U2OS cells transfected with ERβ; format: cell-based; settings: activation by MF101 (MF101 and estradiol)
T1 construct: expressed in transfected cells; host or cells: U2OS osteosarcoma cells

[5] = tested on: U2OS-ERα and U2OS-ERβ cell lines; test: Affymetrix U95Av2 microarray, both U2OS-ERα and U2OS-ERβ cell lines; format: cell-based, human
U2OS-ERβ cells [6] = settings: 1 μM raloxifene, 18 h, relative to untreated
U2OS-ERβ cells [7] = test: Affymetrix U95Av2 microarray, U2OS-ERβ cells; format: cell-based, human; settings: 1 μM raloxifene, 18 h
U2OS-ERα cells [8] = test: Affymetrix U95Av2 microarray, U2OS-ERα cells; format: cell-based, human; settings: 1 μM raloxifene, 18 h
breast cancer graft = test: Breast cancer graft growth, control vs DES vs MF101; format: in vivo
Source text: (§3) In a similar experiment, the effect of MF101 on breast cancer cells was compared to that of diethylstilbestrol (DES). […] FIGS. 3G and 3H show the effect of control, DES and MF101 on a breast cancer graft mass (FIG. 3G) and a uterine horn mass (FIG. 3H).

uterine horn = test: Uterine horn mass, control vs DES vs MF101; format: in vivo
Source text: as §3

[9] = 10 nM E2, 1 μM raloxifene or 1 μM tamoxifen, 18 h
[10] = 1 μM raloxifene or 1 μM tamoxifen, 18 h

T1 sequence (Q92731 whole entry): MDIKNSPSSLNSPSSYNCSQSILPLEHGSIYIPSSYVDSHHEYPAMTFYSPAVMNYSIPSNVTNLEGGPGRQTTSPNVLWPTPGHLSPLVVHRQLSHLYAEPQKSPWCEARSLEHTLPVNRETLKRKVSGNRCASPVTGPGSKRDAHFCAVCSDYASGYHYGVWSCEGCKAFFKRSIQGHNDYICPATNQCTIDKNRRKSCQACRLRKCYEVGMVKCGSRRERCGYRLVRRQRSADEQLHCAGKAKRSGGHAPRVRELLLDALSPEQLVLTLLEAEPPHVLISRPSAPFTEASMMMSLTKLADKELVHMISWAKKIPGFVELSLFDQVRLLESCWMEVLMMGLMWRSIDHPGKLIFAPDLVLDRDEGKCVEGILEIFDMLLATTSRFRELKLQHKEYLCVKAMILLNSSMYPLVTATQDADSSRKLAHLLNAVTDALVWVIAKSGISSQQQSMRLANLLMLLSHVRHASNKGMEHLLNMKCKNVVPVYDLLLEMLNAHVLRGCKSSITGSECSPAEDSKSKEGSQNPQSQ

SMILES: C[C@]12CC[C@@H]3c4ccc(O)cc4CC[C@H]3[C@@H]1CC[C@@H]2O [estradiol]
inhibition of cell proliferation in Ad-ERβ-infected MCF-7 cells (MCF-7 cells): 70%
genes regulated only in the U2OS-ERβ cells (U2OS-ERβ cells [1]; 10 nM E2): 125 genes
genes Activated, β only (U2OS-ERβ cells [1]; [9]): 87 genes
genes Repressed, β only (U2OS-ERβ cells [1]; [9]): 38 genes
share of genes regulated by both ERα and ERβ ([2]; 10 nM E2): 17%
genes regulated in U2OSα and U2OSβ cell lines ([2]; 10 nM E2, 1 μM raloxifene or 1 μM tamoxifen, 18 h, p<0.05, listed as E2): 228 genes
genes regulated by both ERα and ERβ ([2]; 10 nM E2, of the 228): 38 genes
genes Activated, α + β ([2]; 18 h): 34 genes
genes Repressed, α + β ([2]; 18 h): 4 genes
genes regulated only in the U2OS-ERα cells (U2OS-ERα cells [3]; 10 nM E2): 65 genes
genes Activated, α only (U2OS-ERα cells [3]; [9]): 33 genes
genes Repressed, α only (U2OS-ERα cells [3]; [9]): 32 genes

blockade of ERE-tk-Luc activation through ERβ (human ERβ): blocked
SMILES: O=C(c1ccc(OCCN2CCCCC2)cc1)c1c(-c2ccc(O)cc2)sc2cc(O)ccc12 [raloxifene]
genes Activated, β only (U2OS-ERβ cells [1]; [9]): 52 genes
genes Activated, β only, relative percentage (U2OS-ERβ cells [1]; [9]): (27.4%)
genes Repressed, β only (U2OS-ERβ cells [1]; [9]): 101 genes
genes Repressed, β only, relative percentage (U2OS-ERβ cells [1]; [9]): (53.2%)
Fold-change by real-time PCR, NKG2C (α) (U2OS-ERα cells [4]): 7.54 fold
common genes with opposite expression patterns (*), relative percentage [5, 10]: (8.9%)
common genes with opposite expression patterns in ERα compared to ERβ cells (*) [5, 10]: 17* genes
Fold-change by real-time PCR, NKG2C (β) (U2OS-ERβ cells [6]): 0.36 fold
Mean signal log ratio ± S.E., NKG2C (β) (U2OS-ERβ cells [7]): −5.20 ± 0.08
Mean signal log ratio ± S.E., NKG2C (α) (U2OS-ERα cells [8]): 2.40 ± 0.82
genes Activated, α only (U2OS-ERα cells [3]; [9]): 10 genes
genes Activated, α only, relative percentage (U2OS-ERα cells [3]; [9]): (5.3%)
genes Repressed, α only (U2OS-ERα cells [3]; [9]): 10 genes
genes Repressed, α only, relative percentage (U2OS-ERα cells [3]; [9]): (5.3%)

SMILES: CC/C(=C(/CC)c1ccc(O)cc1)c1ccc(O)cc1 [DES, diethylstilbestrol]
growth of xenograft (breast cancer graft mass) (breast cancer graft; vs control): substantial increase
proliferation of breast cancer cells (FIGS. 3D-3F) (breast cancer graft; vs control-treated): proliferation-stimulating effect
uterine horn growth (mass) (uterine horn): substantial increase

SMILES: CC/C(=C(\c1ccccc1)c1ccc(OCCN(C)C)cc1)c1ccccc1 [tamoxifen]
genes Activated, β only (U2OS-ERβ cells [1]; [9]): 26 genes
genes Repressed, β only (U2OS-ERβ cells [1]; [9]): 129 genes
genes Activated, α + β ([2]; 18 h): 1 genes
genes Repressed, α + β ([2]; 18 h): 9 genes
share of genes regulated by tamoxifen also regulated by raloxifene [5]: 27%
common genes with opposite expression patterns in ERα compared to ERβ cells (*) [5, 10]: 12* genes
genes Activated, α only (U2OS-ERα cells [3]; [9]): 21 genes
genes Repressed, α only (U2OS-ERα cells [3]; [9]): 38 genes
